Assay results reported in patent publication US6353025B1, “Phenylaminoalkylcarboxylic acid derivatives and pharmaceutical compositions comprising the same” (Kissei Pharmaceutical Co., Ltd., priority 1997, dated 2002).
Counter-ions that a name gives are not always drawn. Like-named read-outs stand apart in the source and are kept apart here.

How the values were obtained:
β2-adrenoceptor = biological target: T1, β2-adrenoceptor (Rattus norvegicus, UniProt P10608); assay: β2-adrenoceptor stimulating effects: inhibition of spontaneous contraction of isolated pregnant rat uterus (Magnus method); settings: isolated uterine muscle strips of pregnant SD rats (pregnancy day 21)
T1 construct: Uteri of pregnant SD rats (pregnancy day 21) were isolated and longitudinal uterine muscle strips; from tissue; host or cells: longitudinal uterine muscle strips of pregnant SD rats
T1 sequence (P10608 whole entry): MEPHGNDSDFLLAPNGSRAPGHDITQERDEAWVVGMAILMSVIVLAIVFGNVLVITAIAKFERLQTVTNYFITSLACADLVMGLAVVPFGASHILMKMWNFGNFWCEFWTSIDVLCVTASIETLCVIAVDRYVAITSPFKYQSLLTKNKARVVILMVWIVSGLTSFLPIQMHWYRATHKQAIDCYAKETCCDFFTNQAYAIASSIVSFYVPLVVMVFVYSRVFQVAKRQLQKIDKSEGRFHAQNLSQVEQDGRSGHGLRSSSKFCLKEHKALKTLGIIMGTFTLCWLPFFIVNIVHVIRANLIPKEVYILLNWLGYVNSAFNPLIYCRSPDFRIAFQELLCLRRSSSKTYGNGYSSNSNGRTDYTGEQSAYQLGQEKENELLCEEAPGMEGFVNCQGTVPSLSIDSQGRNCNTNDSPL
Procedure: The experiment for measuring β2-adrenoceptor stimulating effects
Uteri of pregnant SD rats (pregnancy day 21) were isolated and longitudinal uterine muscle strips of approximately 15 mm in length and approximately 5 mm in width free from the basal plate were prepared. The experiment was conducted according to the Magnus method. The preparations with a tension of 0.5 g were exposed to Locke-Ringer solution maintained at 37° C. and gassed with a mixture of 95% oxygen and 5% carbon dioxide. Spontaneous contractions of myometrium were measured isometrically with a force-displacement transducer and recorded on a rectigram. The drug was added cumulatively to the Magnus bath every 5 minutes.

β1-adrenoceptor = biological target: T2, β1-adrenoceptor (Rattus norvegicus, UniProt P18090); assay: β1-adrenoceptor stimulating effects: increase of heart rate in isolated rat atria (Magnus method); design: species or system SD rats
T2 construct: Atria of male SD rats (250 to 400 g in body weight) were isolated; from tissue; host or cells: isolated rat atria
T2 sequence (P18090 whole entry): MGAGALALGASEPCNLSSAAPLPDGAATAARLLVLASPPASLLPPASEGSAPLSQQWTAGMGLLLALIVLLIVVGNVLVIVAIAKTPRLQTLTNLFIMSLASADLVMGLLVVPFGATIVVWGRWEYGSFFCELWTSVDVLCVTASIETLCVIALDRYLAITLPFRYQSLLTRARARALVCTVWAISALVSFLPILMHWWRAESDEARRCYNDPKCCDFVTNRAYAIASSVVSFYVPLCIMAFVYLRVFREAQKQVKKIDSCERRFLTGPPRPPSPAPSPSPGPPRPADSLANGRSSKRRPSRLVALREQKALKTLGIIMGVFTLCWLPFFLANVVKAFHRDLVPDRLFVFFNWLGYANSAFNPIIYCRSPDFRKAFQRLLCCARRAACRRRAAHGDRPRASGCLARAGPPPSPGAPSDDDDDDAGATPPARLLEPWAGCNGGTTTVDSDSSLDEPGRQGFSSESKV
Procedure: The experiment for measuring β1-adrenoceptor stimulating effects
Atria of male SD rats (250 to 400 g in body weight) were isolated and the experiment was conducted according to the Magnus method. The preparations with a tension of 0.5 g were exposed to Krebs-Henseleit solution maintained at 37° C. and gassed with a mixture of 95% oxygen and 5% carbon dioxide. The cardiac contractility was measured isometrically with a force-displacement transducer, and heart rate was recorded on a rectigram via a tachometer, and the drug was added cumulatively.

male ICR rats = assay: Acute toxicity test; type: in vivo; settings: male ICR rats of 4 weeks age, intravenously, 250 mg/kg, during 24 hours after the administration
Procedure: To male ICR rats of 4 weeks age was administered intravenously N-[2,6-dichloro-4-[2-[[(1S, 2R)-2-hydroxy-2-(4-hydroxyphenyl)-1-methylethyl]amino]ethyl]phenyl]aminoacetic acid at a dose of 250 mg/kg.

β3-adrenoceptor = β3-adrenoceptor (Mustela putorius furo, UniProt M3YEU4); assay: β3-adrenoceptor stimulating effects: relaxation of isolated ferret urinary bladder smooth muscle strips (Magnus method); settings: read-out: EC50 (molar concentration producing 50% relaxation of urinary bladder smooth muscle); isolated male ferret urinary bladder strips; 0% = maximal relaxation after 10^−5 M forskolin
Chain of β3-adrenoceptor (M3YEU4 entry or part of it): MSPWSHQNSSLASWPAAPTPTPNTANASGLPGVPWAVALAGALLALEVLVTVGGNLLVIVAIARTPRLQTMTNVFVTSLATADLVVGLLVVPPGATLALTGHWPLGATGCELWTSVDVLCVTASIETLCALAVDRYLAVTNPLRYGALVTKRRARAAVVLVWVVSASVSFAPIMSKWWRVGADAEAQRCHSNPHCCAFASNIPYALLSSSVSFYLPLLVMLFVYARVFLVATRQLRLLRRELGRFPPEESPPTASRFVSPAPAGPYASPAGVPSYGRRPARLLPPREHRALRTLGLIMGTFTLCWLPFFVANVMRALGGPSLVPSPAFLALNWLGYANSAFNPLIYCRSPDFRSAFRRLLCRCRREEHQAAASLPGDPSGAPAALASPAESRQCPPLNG
Procedure: The experiment for measuring β3-adrenoceptor stimulating effects
Urinary bladders of male ferrets (1100 to 1400 g in body weight) were isolated and urinary bladder smooth muscle strips of approximately 10 mm in length and approximately 2 mm in width were prepared. The experiment was conducted according to the Magnus method. The preparations with a tension of 1 g were exposed to Krebs-Henseleit solution maintained at 37° C. and gassed with a mixture of 95% oxygen and 5% carbon dioxide. Basal tensions of urinary bladder were measured isometrically with a force-displacement transducer and recorded on a rectigram. The drug was added cumulatively to the Magnus bath every 5 minutes. […] In this experiment, tension of urinary bladder smooth muscle before the addition of the drug was expressed as 100% and tension of maximal relaxation after the addition of 10^−5 molar concentration of forskolin was expressed as 0%.

Row | SMILES | EC50 (β2-adrenoceptor) [nM] | EC50 (β1-adrenoceptor) [nM] | further results
1 | C[C@H](NCCc1cc(Br)c(NCC(=O)O)c(Br)c1)[C@H](O)c1ccc(O)cc1 [Compound 29, N-[2,6-Dibromo-4-[2-[[(1S, 2R)-2-hydroxy-2-(4-hydroxyphenyl)-1-methylethyl]amino]ethyl]phenyl]aminoacetic acid] |  | > 100000 | 
2 | C[C@H](NCCc1cc(Cl)c(NCC(=O)N(C)C)c(Cl)c1)[C@H](O)c1ccc(O)cc1 [Compound 16, 2-[[2,6-Dichloro-4-[2-[[(1S, 2R)-2-hydroxy-2-(4-hydroxyphenyl)-1-methylethyl]amino]ethyl]phenyl]amino]-N, N-dimethylacetamide hydrochloride] |  | > 100000 | 
3 | C[C@H](NCCc1cc(Cl)c(NCC(=O)O)c(Cl)c1)[C@H](O)c1ccc(O)cc1 [Compound 17, N-[2,6-Dichloro-4-[2-[[(1S, 2R)-2-hydroxy-2-(4-hydroxyphenyl)-1-methylethyl]amino]ethyl]phenyl]aminoacetic acid] | 14000 | > 100000 | Death of animals (acute toxicity) (male ICR rats): No death of animals was observed
4 | C[C@H](Cc1ccc(OCC(=O)O)cc1)NC[C@H](O)c1cccc(Cl)c1 [BRL-37344, reference compound] |  |  | EC50 (β3-adrenoceptor): 1.6 nM; EC50 (β2-adrenoceptor; read-out: EC50 (molar concentration producing 50% inhibition of uterine contraction)): 9 nM; EC50 (β1-adrenoceptor; read-out: EC50 (molar concentration producing 50% increase of heart rate per minute), isolated male SD rat atria, 100% = increase after 10^−8 M isoproterenol): 270 nM
5 | CCOC(=O)CNc1c(Cl)cc(CCN[C@@H](C)[C@H](O)c2ccc(O)cc2)cc1Cl [Compound 2, Ethyl N-[2,6-dichloro-4-[2-[[(1S, 2R)-2-hydroxy-2-(4-hydroxy-phenyl)-1-methylethyl]amino]ethyl]phenyl]aminoacetate hydrochloride] | 650 | 50 | 

Now from value to compound, other results behind:

Row | EC50 (β2-adrenoceptor) [nM] | SMILES | EC50 (β1-adrenoceptor) [nM] | further results
6 | 1700 | C[C@H](NCCc1cc(Cl)c(NCC(=O)N2CCOCC2)c(Cl)c1)[C@H](O)c1ccc(O)cc1 [Compound 32, 4-[2-[[2,6-Dichloro-4-[2-[[(1S, 2R)-2-hydroxy-2-(4-hydroxy-phenyl)-1-methylethyl]amino]ethyl]phenyl]amino]acetyl]morpholine] | > 100000 | 
7 | 1600 | C[C@H](NCCc1ccc(N(C)CC(=O)O)cc1)[C@H](O)c1ccc(O)cc1 [Compound 21, N-[4-[2-[[(1S, 2R)-2-Hydroxy-2-(4-hydroxyphenyl)-1-methylethyl]-amino]ethyl]phenyl]-N-methylaminoacetic acid] | 34000 | 
8 | 3300 | C[C@H](NCCc1ccc(NCC(=O)O)c(Cl)c1)[C@H](O)c1ccc(O)cc1 [Compound 20, N-[2-Chloro-4-[2-[[(1S, 2R)-2-hydroxy-2-(4-hydroxyphenyl)-1-methylethyl]amino]ethyl]phenyl]aminoacetic acid] | 23000 | 
9 | 650 | C[C@H](NCCc1ccc(NCC(=O)O)cc1)[C@H](O)c1ccc(O)cc1 [Compound 18, N-[4-[2-[[(1S, 2R)-2-hydroxy-2-(4-hydroxyphenyl)-1-methylethyl]-amino]ethyl]phenyl]aminoacetic acid] | 83 | 
